This is an account of results in patent US20060030537A1, “Ceramide kinase and uses thereof” (priority 2004, published 2006).

Data set [1] has as its system A549 cells. The data set is described as follows: Quantification of prostaglandin E2 synthesis in A549 cells (EIA). It counts as cell-based. As to conditions: compared with inhibition of AA release. As for the experimental part: (§1) Cell Culture: A549 lung adenocarcinoma cells (epithelial-derived) were grown in low glucose DMEM (Invitrogen) supplemented with L-glutamine, 10% (v/v) fetal bovine serum (Invitrogen), 200 U/ml of penicillin G sodium, and 200 μg/ml of streptomycin sulfate. Cells were maintained under 80% confluency and standard incubator conditions (humidified atmosphere, 95% air, 5% CO2, 370 C). For treatment, cells were incubated for 2 hours in low glucose DMEM (Invitrogen) supplemented with L-glutamine, 2% (v/v) fetal bovine serum (Invitrogen), 200 U/ml of penicillin G sodium, and 200 μg/ml of streptomycin sulfate prior to the addition of agonist.
Quantification of prostaglandin E2 and thromboxane B2 synthesis: For measurement of PGE2 and TXB2 levels, aliquots of media were taken at indicated time points and assayed according to manufacturer's instructions using the prostaglandin E2 and thromboxane B2 monoclonal EIA Kit from Cayman Chemical. Briefly, media containing PGE2 or TXB2 competes with PGE2 or TXB2 acetylcholinesterase conjugate for a limited amount of monoclonal antibody. The antibody-PGE2 or -TXB2 conjugate binds to a goat-anti-mouse antibody previously attached to the 96-well plate. The plate is washed to remove unbound reagents and then the substrate for acetylcholinesterase is provided. […] Results were controlled for equivalent number of cells quantified by MTT assay. […]

For a further data set, the system named is ceramide kinase mRNA. Kind of data set: RT-PCR of ceramide kinase mRNA in A549 cells. The following applies: 26 hours after transfection, normalized to 18s ribosomal RNA. It counts as cell-based, human. As for the experimental part:
FIGS. 6A-6B. Ceramide kinase RNAi downregulates endogenous ceramide kinase activity and mRNA levels. FIG. 6A. The effect of ceramide kinase RNAi on endogenous ceramide kinase activity. A549 cells (5×10^4) were transfected with the 21-nucleotide duplexes for ceramide kinase or scrambled control sequence. Following the 4 hour transfection, cells incubated in normal growth media for 26 hours. Cells were then washed, lysed in assay buffer, and assayed for ceramide kinase activity. Data are presented as % control ceramide kinase activity with control RNAi (Control) or ceramide kinase RNAi (CerK RNAi). Data are representative of three separate determinations on two separate occasions. FIG. 6B. The effect of ceramide kinase RNAi on the mRNA levels of ceramide kinase. Following the same procedure as outlined in FIG. 6A, total RNA was extracted and analyzed via logarithmic reverse-transcriptase polymerase chain reaction for human ceramide kinase and 18s ribosomal RNA. Data are presented as percent control after the densitometry of ceramide kinase mRNA was normalized to 18s ribosomal RNA levels with control RNAi (Control) or ceramide kinase RNAi (CerK RNAi). Data are representative of three separate determinations on two separate occasions. […]

Data set [2] relates to A549 cells. It counts as cell-based.
Data set [3] has as its system A549 cells. Kind of data set: Quantification of arachidonic acid (AA) release in A549 cells. It counts as cell-based. The protocol: as §1
Quantification of arachidonic acid (AA) release: A549 cells (5×10^4) were labeled overnight with 5 μCi/mL [^3H]-AA (5 nM) (NEN). Cells were washed and incubated in DMEM supplemented with 2% fetal bovine serum for 2 hours. Following treatment, media was transferred to 1.5 mL polypropylene tubes, centrifuged at 10,000×g, and ^3H-AA cpm determined by scintillation counting. Results were controlled for equivalent number of cells quantified by MTT assay as described (Chalfant, C. E., Rathman, K., Pinkerman, R. L., Wood, R. E., Obeid, L. M., Ogretmen, B., and Hannun, Y. A. (2002) J. Biol. Chem. 277, 12587-12595) and by verification of total AA labeling by scintillation counting. For the experiments in FIG. 4, purified SMase D was obtained from Dr. Alfred H. Merrill, Jr., and SMase C (purified from Bacillus cereus) was obtained commercially from Sigma.
RNAi design and transfections: Knock-downs of ceramide kinase were performed essentially as described using sequence specific siRNA reagents (http:www.mpibpc.gwdg.de/abteilungen/100/105/sirna.html) (Lassus, P., Opitz-Araya, X., and Lazebnik, Y. (2002) Science 297, 1352-1354) using human ceramide kinase RNAi starting 142 nucleotides from start codon ([…]dTd (SEQ ID NO: 3) and […]dTd (SEQ ID NO:4)). All sequences were evaluated against the database using the NIH blast program to test for specificity (Xeragon, A Qiagen Company). A549 cells (3×10^4) were transfected with the 21-nucleotide duplexes using OligofectAMINE (Invitrogen) as recommended by the manufacturer. Following the 4 hour transfection, cells were treated and assayed for AA release or PGE2 synthesis at 26 hours post-transfection.

The subject of another data set is sphingosine kinase-1. Kind of data set: Immunoreactive levels of sphingosine kinase-1 after ceramide kinase RNAi. It counts as cell-based. As to conditions: cells transfected with RNAi targeted to ceramide kinase.

Consider “ceramide kinase RNAi: 21-nucleotide duplex, human ceramide kinase RNAi starting 142 nucleotides from start codon (SEQ ID NO: 3 and 4) (chain 1 UGCCUGCUCUGUGCCUGUATT; chain 2 UACAGGCACAGAGCAGGCATT; chemistry not given here)”, for which the “inhibition of PGE2 synthesis in response to IL-1β and A23187” value in the data set on A549 cells [1] was “to the same extent”. For the same substance, in the data set with ceramide kinase mRNA, the “decrease of ceramide kinase mRNA levels” value is on record as 73%. Moreover, in the data set with A549 cells [2], the “effects on cell number” value was “without effects”. Besides, the “inhibition of AA release in response to A23187” value in the data set on A549 cells [3] (A23187 1 μg/mL, 26 hours post-transfection) is given as 72%. Moreover, the “AA release in response to C-1-P treatment” value in the data set on A549 cells [3] (C-1-P 2.5 μM for 5 hours) was “no effect”. Also, the “inhibition of AA release in response to IL-1β” value with A549 cells [3] (IL-1β 2.5 ng/mL for 4 hours, 26 hours post-transfection) stood at 78%. Besides, the IC50 (as a rule, the point on the concentration scale where inhibition reaches its midpoint) in the data set with A549 cells [3] (IL-1β or A23187, read-out: IC50 of inhibition of agonist-induced AA release) was around 30 nM. Also, in the data set on sphingosine kinase-1, the “immunoreactive levels of sphingosine kinase-1” value was “no decrease”.
